In brackets after ≈: the same amount, converted by molar mass. Where a name gives a salt, the structure may show the parent alone. Read-outs that look alike come from different tables or passages of the source.
Tests used:
[1] = test system: E. coli DRCC 018 ATCC 25922; assay: In vitro MIC by broth microdilution; assay type: cell-based; settings: Escherichia coli, ATCC25922
Experimental: (§1) Minimum Inhibition Concentrations (MICs) were determined by broth microdilution technique as per the guidelines prescribed in the fifth edition of Approved Standards NCCLS document M7-A5 Vol 20-No 2, 2000 Villinova, Pa. (Currently Clinical and Laboratory Standards Institute (CLSI)). Initial stock solution of the compound of formula (I) was prepared in DMSO. Subsequent two fold dilutions were carried out in sterile Cation adjusted Muller Hinton Broth (Difco) (MHB). Frozen cultures stocks were inoculated in 25 ml sterile MHB in 50 ml Erlyn Meyer flasks.
(§2) Composition of MHB is as follows: Beef Extract Powder—2.0 grams/litre, Acid Digest of Casein—17.5 grams/litre, Soluble Starch—1.5 grams/litre, Final pH 7.3±0.1
(§3) Flasks were incubated for 4 to 5 hours at 36±1° C. on a rotary shaker at 110 rpm. Inoculum was prepared by diluting the culture in sterile MHB to obtain a turbidity of 0.5 McFarland standard. This corresponds to 1−2×10^8 CFU/mL. The stock was further diluted to achieve a final inoculum density of 5×10^4 to 1×10^5 CFU/well. The plates were incubated 18 to 20 hours at 37° C.

[2] = test system: E. faecalis DRCC 034 VSE ATCC 29212; assay: In vitro MIC by broth microdilution; assay type: cell-based; settings: Enterococcus faecalis, ATCC29212
Experimental: as §1, §2, §3

[3] = test system: E. faecalis DRCC 153 VRE NCTC 12201; assay: In vitro MIC by broth microdilution; assay type: cell-based; settings: Enterococcus faecalis
Experimental: as §1, §2, §3

[4] = test system: E. faecium DRCC 154 VRE NCTC 12202; assay: In vitro MIC by broth microdilution; assay type: cell-based; settings: Enterococcus faecium
Experimental: as §1, §2, §3

[5] = test system: K. pn DRCC 575 ATCC 700603; assay: In vitro MIC by broth microdilution; assay type: cell-based; settings: Klebsiella pneumoniae, ATCC700603
Experimental: as §1, §2, §3

[6] = test system: P. aeru DRCC 024 ATCC 27853; assay: In vitro MIC by broth microdilution; assay type: cell-based; settings: Pseudomonas aeruginosa, ATCC27853
Experimental: as §1, §2, §3

[7] = test system: S. aureus DRCC 019 MRSA ATCC 33591; assay: In vitro MIC by broth microdilution; assay type: cell-based; settings: Staphylococcus aureus
Experimental: as §1, §2, §3

[8] = test system: S. aureus DRCC 035 MSSA ATCC 29213; assay: In vitro MIC by broth microdilution; assay type: cell-based; settings: Staphylococcus aureus
Experimental: as §1, §2, §3

E faecalis DRCC 543 = assay: ED50 in murine systemic infection model; assay type: in vivo; settings: Enterococcus faecalis, 120 h, Swiss Albino Mice, survival 5 days
Experimental: (§4) Animals: Specific pathogen free outbred, female and male Swiss Albino Mice, 4-6 weeks old, weighing 25±2 grams.
(§5) Inoculum Preparation: • Systemic infection model is performed based on LD50 of an organism. 10-1000×LD50 or 1-5 MLD (minimum lethal dose) is used as an infecting inoculum. • Organisms are sub-cultured on blood agar plates and incubated at 35-37° C. for 18-24 hours. Inoculum is prepared in 0.9% normal saline and optical density adjusted at 560 nm to yield an inoculum density of 10^5 to 10^9CFU/mL based on the test organism. • Adjusted inoculum is further diluted 1:1 in mucin solution to achieve a final mucin concentration of 5-7.5% (wt/vol). • Log CFUs of inoculum is determined by serially diluting the inoculum in normal saline and plating on suitable agar plates. Plates are incubated at 35-37° C. for 18-24 hours and counts determined.
(§6) Infection: • Animals are infected with 0.5 ml of inoculum by intra-peritoneal route. • Two groups of mice left untreated, serve as untreated control.
(§7) Treatment: • For single dose, compound of formula (I) is administered at 0 to 3 hour post-infection by p.o./s.c./i.v. route. • For b.i.d., compound of formula (I) administered at 0 to 3 hour post-infection for first dose and at 4 to 6 hours post-infection for second dose by p.o./s.c./i.v. route.
(§8) End point: Survival/death in each treated and untreated groups are monitored for 5 days (7 days for S. pneumoniae). The ED50 values are determined by probit analysis.

E. Coli ATCC 25992 = assay: ED50 in murine systemic infection model; assay type: in vivo; settings: Escherichia coli, 120 h, Swiss Albino Mice, survival 5 days
Experimental: as §4, §5, §6, §7, §8

MRSA DRCC 446 = assay: ED50 in murine systemic infection model; assay type: in vivo; settings: Staphylococcus aureus, 120 h, Swiss Albino Mice, survival 5 days
Experimental: as §4, §5, §6, §7, §8

[9] = test system: S. aureus DRCC 035 (ATCC 29213); assay: ED50 in murine systemic infection model; assay type: in vivo; settings: Staphylococcus aureus, 120 h, Swiss Albino Mice, survival 5 days
Experimental: as §4, §5, §6, §7, §8

S. pneumoniae ATCC 49619 = assay: ED50 in murine systemic infection model; assay type: in vivo; settings: Streptococcus pneumoniae, 168 h, Swiss Albino Mice, survival 7 days
Experimental: as §4, §5, §6, §7, §8

[10] = E. coli DRCC 018, ATCC 25922, read-out: MIC
[11] = E. faecalis DRCC 034, VSE, ATCC 29212, read-out: MIC
[12] = E. faecalis DRCC 153, VRE, NCTC 12201, read-out: MIC
[13] = E. faecium DRCC 154, VRE, NCTC 12202, read-out: MIC
[14] = K. pn DRCC 575, ATCC 700603, read-out: MIC
[15] = P. aeru DRCC 024, ATCC 27853, read-out: MIC
[16] = S. aureus DRCC 019, MRSA, ATCC 33591, read-out: MIC
[17] = S. aureus DRCC 035, MSSA, ATCC 29213, read-out: MIC

Structure (SMILES) | MIC [1, 10] [µg/mL] | MIC [2, 11] [µg/mL] | MIC [3, 12] [µg/mL] | MIC [4, 13] [µg/mL] | MIC [5, 14] [µg/mL] | MIC [6, 15] [µg/mL] | MIC [7, 16] [µg/mL] | MIC [8, 17] [µg/mL] | further results
CN(C)c1cc(NC(=O)[C@@H]2CCCN2C)c(O)c2c1C[C@H]1C[C@H]3[C@H](N(C)C)C(O)=C(C(N)=O)C(=O)[C@@]3(O)C(O)=C1C2=O [Example 2, (S)—N-((5aR,6aS,7S,10aS)-9-carbamoyl-4,7-bis(dimethylamino)-1,8,10a,11-tetrahydroxy-10,12-dioxo-5,5a,6,6a,7,10,10a,12-octahydrotetracen-2-yl)-1-methylpyrrolidine-2-carboxamide] | 0.12 (≈ 0.206 µM) | 0.03 (≈ 0.0514 µM) | 0.03 (≈ 0.0514 µM) | 0.01 (≈ 0.0171 µM) | 8 (≈ 13.7 µM) | 16 (≈ 27.4 µM) | 0.25 (≈ 0.428 µM) | 0.12 (≈ 0.206 µM) | ED50 (E faecalis DRCC 543; DRCC543, iv, E faecalis DRCC 543, i.v.-q.d.): 0.28 mg/kg; ED50 (E faecalis DRCC 543; DRCC543, po, E faecalis DRCC 543, p.o.-b.i.d.): 2.53 mg/kg; ED50 (E. Coli ATCC 25992; ATCC25992, iv, E. Coli ATCC 25992, i.v.-q.d.): 0.5 mg/kg; ED50 (E. Coli ATCC 25992; ATCC25992, po, E. Coli ATCC 25992, p.o.-b.i.d.): 12.6 mg/kg; ED50 (MRSA DRCC 446; iv, MRSA DRCC 446, i.v.-q.d.): 0.77 mg/kg; ED50 (MRSA DRCC 446; po, MRSA DRCC 446, p.o.-b.i.d.): 7.3 mg/kg; ED50 ([9]; ATCC29213, iv, i.v.-q.d.): 0.6 mg/kg; ED50 ([9]; ATCC29213, po, p.o.-b.i.d.): 5.5 mg/kg; ED50 (S. pneumoniae ATCC 49619; ATCC49619, iv, S. pneumoniae ATCC 49619, i.v.-q.d.): 0.16 mg/kg; ED50 (S. pneumoniae ATCC 49619; ATCC49619, po, S. pneumoniae ATCC 49619, p.o.-b.i.d.): 6.2 mg/kg
CCN1CCC[C@H]1C(=O)Nc1cc(N(C)C)c2c(c1O)C(=O)C1=C(O)[C@]3(O)C(=O)C(C(N)=O)=C(O)[C@@H](N(C)C)[C@@H]3C[C@@H]1C2 [Example 3, (S)—N-((5aR,6aS,7S,10aS)-9-carbamoyl-4,7-bis(dimethylamino)-1,8,10a,11-tetrahydroxy-10,12-dioxo-5,5a,6,6a,7,10,10a,12-octahydrotetracen-2-yl)-1-ethylpyrrolidine-2-carboxamide] | 0.5 (≈ 0.837 µM) | 0.12 (≈ 0.201 µM) | 0.12 (≈ 0.201 µM) | 0.06 (≈ 0.1 µM) | 16 (≈ 26.8 µM) | > 32 | 0.5 (≈ 0.837 µM) | 0.5 (≈ 0.837 µM) | 
CC(C)CN1CCC[C@H]1C(=O)Nc1cc(N(C)C)c2c(c1O)C(=O)C1=C(O)[C@]3(O)C(=O)C(C(N)=O)=C(O)[C@@H](N(C)C)[C@@H]3C[C@@H]1C2 [Example 7, (S)—N-((5aR,6aS,7S,10aS)-9-carbamoyl-4,7-bis(dimethylamino)-1,8,10a,11-tetrahydroxy-10,12-dioxo-5,5a,6,6a,7,10,10a,12-octahydrotetracen-2-yl)-1-isobutylpyrrolidine-2-carboxamide dihydrochloride] |  |  |  |  |  |  |  |  | MIC [1]: 4 µg/mL; MIC [2]: 0.5 µg/mL; MIC [3]: 1 µg/mL; MIC [4]: 0.5 µg/mL; MIC [5]: 128 µg/mL; MIC [6]: 64 µg/mL; MIC [7]: 2 µg/mL; MIC [8]: 2 µg/mL
CCCN1CCC[C@H]1C(=O)Nc1cc(N(C)C)c2c(c1O)C(=O)C1=C(O)[C@]3(O)C(=O)C(C(N)=O)=C(O)[C@@H](N(C)C)[C@@H]3C[C@@H]1C2 [Example 4, (S)—N-((5aR,6aS,7S,10aS)-9-carbamoyl-4,7-bis(dimethylamino)-1,8,10a,11-tetrahydroxy-10,12-dioxo-5,5a,6,6a,7,10,10a,12-octahydrotetracen-2-yl)-1-propylpyrrolidine-2-carboxamide] | 2 (≈ 3.27 µM) | 0.25 (≈ 0.409 µM) | 0.5 (≈ 0.817 µM) | 0.12 (≈ 0.196 µM) | > 32 | > 32 | 1 (≈ 1.63 µM) | 1 (≈ 1.63 µM) | 

Reference: patent US7939513B2, “Tetracycline derivatives as antibacterial agents” (Dr. Reddy's Laboratories Limited, priority 2007, dated 2011)
